# Assay results taken from patent publication US6846921B2, “Chimeric antisense oligonucleotides and cell transfecting formulations thereof” (Chiron Corporation, priority 1999, dated 2005).
# {5'-OMe-dT} = O-methyl thymidine blocking nucleotide (W), phosphodiester-linked; {3'-3'N} = to-3' linked nucleotide blocking group (Z), phosphodiester-linked; d = 2'-deoxy (DNA); m = 2'-O-methyl
# Tests used:
# [1] = tested on: CK1E mRNA; test: CK1E mRNA knockout after transfection of chimeric antisense oligonucleotide; format: cell-based, human; conditions: HT1080 cells, Lipitoid 1 for transfection, incubated 24 hours, approximate level
# Method: (§1) With the exception of the mTyr oligo (SEQ ID NO: 17-18), which was transfected into B16 melanoma cells, all oligos shown in Table 1 were transfected into HT1080 cells, using “Lipitoid 1” (see below) for transfection, and incubated for 24 hours. The table gives the approximate level of mRNA knockout observed in each case.
# (§2) For each transfection mixture, a carrier molecule, preferably a lipitoid or cholesteroid, was prepared to a working concentration of 0.5 mM in water, sonicated to yield a uniform solution, and filtered through a 0.45 μm PVDF membrane. The antisense oligonucleotide was prepared to a working concentration of 100 μM in sterile Millipore water. […]
# (§3) The level of target mRNA was quantitated using the Roche LightCycler™ real-time PCR machine. […]
# (§4) An amplification mixture was prepared by mixing in the following order: 1×PCR buffer II, 3 mM MgCl2, 140 μM each dNTP, 0.175 pmol each oligo, 1:50,000 dil of SYBR® Green, 0.25 mg/ml BSA, 1 unit Taq polymerase, and H2O to 20 μl. (PCR buffer II is available in 10×concentration from Perkin-Elmer (Norwalk, Conn.). In 1×concentration it contains 10 mM Tris pH 8.3 and 50 mM KCl. SYBR® Green (Molecular Probes, Eugene, Oreg.) is a dye which fluoresces when bound to double stranded DNA. As double stranded PCR product is produced during amplification, the fluorescence from SYBR® Green increases.) […]
# [2] = tested on: Lovo colon cancer cells; test: 4 day cell proliferation assay after transfection, Lovo; format: cell-based; conditions: 4 day assay, 50-300 nM reverse control PDK1 oligo, compared with Lipitoids 1 and 2
# Method: (§5) (Again, reverse control PDK1 chimeric oligonucleotides, expected to be non-active, were used.). […] This effect is not limited to this cell type, and was also observed in proliferation assays of Km12L4 colon cancer cells (FIG. 6) and Colo320DM colon cancer cells (FIG. 7).
# (§6) Cells were seeded into 96 well plates at a density of 5000 cells per well. For a 4 day proliferation assay, 5 independent 96 well plates were prepared, one for each day. After overnight incubation, cells were transfected using the procedure described above. On each day of the proliferation assay, all medium was removed from one plate and frozen at −70° C. On day four, all plates were developed with the Quantos™ assay kit (Stratagene, La Jolla, Calif.) which determines the amount of DNA, and thus the number of cells, in each well.
# [3] = tested on: Colo320DM colon cancer cells; test: Cell proliferation assay after transfection, Colo320DM; format: cell-based; conditions: compared with Lipitoids 1 and 2
# Method: as §5, §6
# [4] = tested on: chk1 kinase; test: chk1 kinase activity after antisense transfection; format: cell-based, human; conditions: hCHK1 antisense, transfected cells
# [5] = tested on: CHK1 mRNA; test: CHK1 mRNA knockout after transfection of chimeric antisense oligonucleotide; format: cell-based, human
# Method: Antisense chimeric oligonucleotides based on the formula above, having sequences directed against AKT1 (SEQ ID NO: 1) or AKT2 (SEQ ID NO: 2), were prepared as described in Example 1. The oligonucleotides also included a 5′-terminal 5′-O-methyl thymidine, as indicated by the formula above. In these oligonucleotides, X^1 and X^2 were seven-base blocks of 2′-O-methyl PO RNA, Y is PS DNA, Z was a 3′-to-3′ linked nucleotide, and W was a 5′-O-methyl thymidine. Both Z and W were linked to the respective X blocks via phosphodiester linkages. […] FIGS. 5 and 6 show levels of endogenous AKT1 mRNA in colon cancer cells and HT1080 cells, respectively, transfected with anti-AKT1 chimeric oligonucleotides (SEQ ID NO: 1). […]
# as §3, §4
# [6] = tested on: G2 cell cycle checkpoint control; test: chk1 function (G2 cell cycle checkpoint control) after antisense transfection; format: cell-based, human; conditions: hCHK1 antisense, transfected cells
# [7] = tested on: human fibrosarcoma (HT1080) cells; test: Delivery of FITC-labeled chimeric oligonucleotides, fluorescence analysis; format: cell-based
# Description: One method of delivery involves the use of transfection agents known as “lipitoids” and “cholesteroids”, described, for example, in co-owned PCT publications WO 98/06437 and WO 99/08711 (Zuckermann et al.), based on U.S. Ser. Nos. 60/023,867, 60/054,743, and 09/132,808, which are hereby incorporated by reference. These lipid-cationic peptoid conjugates are shown in these references to be effective reagents for the delivery of plasmid DNA to cells in vitro. It is shown herein that such compounds efficiently deliver oligonucleotides into a variety of primary and tumor cell lines. The efficiency of delivery was assessed by fluorescence analysis of FITC-labeled oligonucleotides, or by monitoring mRNA levels after transfection of chimeric antisense oligonucleotides, as described further below.
# The extent of delivery of FITC-labeled chimeric oligonucleotides into human fibrosarcoma (HT1080) cells was assessed via fluorescence analysis. (All oligonucleotides used in the subsequent studies were chimeric oligonucleotides as described for the studies represented in Table 1.) The sequence of the oligonucleotides was the reverse control of PDK1 (SEQ ID NO: 25, the reverse of SEQ ID NO: 23) so that the effect of the oligonucleotides on the cells would be minimal. The oligonucleotides were transfected via complexation with (a) a commercially available transfection agent, Effectene™, (b) the peptoid (NaeNmpeNmpe)3 (peptoid 1), (c) Lipitoid 1, in a 1:4 charge ratio of oligo to lipitoid, and (d) Lipitoid 1, in a 1:3 charge ratio.
# [8] = tested on: AKT1 mRNA; test: AKT1 mRNA knockout in colon cancer cell line (Lovo) with different carriers; format: cell-based; conditions: Lovo cells; delivery of chimeric anti-AKT1 oligo
# Method: For each transfection mixture, a carrier molecule, preferably a lipitoid or cholesteroid, was prepared to a working concentration of 0.5 mM in water, sonicated to yield a uniform solution, and filtered through a 0.45 μm PVDF membrane. The antisense oligonucleotide was prepared to a working concentration of 100 μM in sterile Millipore water.
# The oligonucleotide was diluted in OptiMEM™ (Gibco/BRL), in a microfuge tube, to 2 μM, or approximately 20 μg oligo/ml of OptiMEM™. In a separate microfuge tube, lipitoid or cholesteroid, typically in the amount of about 1.5-2 nmol lipitoid/μg antisense oligonucleotide, was diluted into the same volume of OptiMEMTm used to dilute the oligonucleotide. The diluted antisense oligonucleotide was immediately added to the diluted lipitoid and mixed by pipetting up and down.
# Cells were plated on tissue culture dishes one day in advance of transfection, in growth media with serum, to yield a density at transfection of 60-90%. The oligonucleotide/lipitoid mixture was added to the cells, immediately after mixing, to a final concentration of 100-300 nM antisense oligonucleotide. Cells were incubated with the transfection mixture at 37° C., 5% CO2 for 4-24 hours. After incubation, the transfection mixture was removed and replaced with normal growth media with serum.
# as §3
# [9] = tested on: ILK mRNA; test: ILK mRNA knockout after transfection of chimeric antisense oligonucleotide; format: cell-based, human; conditions: HT1080 cells, Lipitoid 1 for transfection, incubated 24 hours, approximate level
# Method: as §1, §2, §3, §4
# [10] = tested on: IGFR1 mRNA; test: IGFR1 mRNA knockout after transfection of chimeric antisense oligonucleotide; format: cell-based, human; conditions: HT1080 cells, Lipitoid 1 for transfection, incubated 24 hours, approximate level
# Method: as §1, §2, §3, §4
# [11] = tested on: E1AF mRNA; test: E1AF mRNA knockout after transfection of chimeric antisense oligonucleotide; format: cell-based, human; conditions: HT1080 cells, Lipitoid 1 for transfection, incubated 24 hours, approximate level
# Method: as §1, §2, §3, §4
# [12] = tested on: AKT1 mRNA; test: AKT1 mRNA knockout after transfection of chimeric antisense oligonucleotide; format: cell-based, human; conditions: HT1080 cells
# Method: as §1
# The same oligos were also delivered by commercial lipids (Effectene™) and peptoids ((NaeNmpeNmpe)3).
# For each transfection mixture, a carrier molecule, preferably a lipitoid or cholesteroid, was prepared to a working concentration of 0.5 mM in water, sonicated to yield a uniform solution, and filtered through a 0.45 μm PVDF membrane. […]
# as §3, §4
# [13] = oligo SEQ ID NO: 25, in comparison to Effectene
substance,measurement,setting,value
"6 (AGCGGCAGAAGTTGAGGTATGTTGA; antisense; sugars from the 5' end m7 d11 m7, 5' {5'-OMe-dT}, 3' {3'-3'N}, backbone and T or U not given here; 2'-OMe blocks are phosphodiester, DNA gap is phosphorothioate) [compound 6]",mRNA knockout,[1],>80%
Chol-β-ala-(NaeNiaNia)3 [Cholesteroid 3],proliferation and viability following oligonucleotide transfection (FIG. 5),[2],significant increase in proliferation and viability
same,proliferation following oligonucleotide transfection (FIG. 7),[3],also observed
Chol-Ahx-(NaeNmpeNmpe)3 [Cholesteroid 2],proliferation and viability following oligonucleotide transfection (FIG. 5),[2],significant increase in proliferation and viability
same,proliferation following oligonucleotide transfection (FIG. 7),[3],also observed
"CCCAGAGCCGATGGTCCGATCATGT (sugars from the 5' end m7 d11 m7, 5' {5'-OMe-dT}, 3' {3'-3'N}, backbone and T or U not given here; 2'-OMe blocks are phosphodiester, DNA gap is phosphorothioate) [SEQ ID NO: 3, chimeric antisense oligonucleotide directed against hCHK1]",chk1 kinase activity,[4],loss of chk1 kinase activity
same,degradation of endogenous mRNA,"[5]; hCHK1 antisense, transfected cells",degradation of endogenous mRNA
same,chk1 function (G2 cell cycle checkpoint control),[6],loss of chk1 function
DMPE(NaeNmpeNmpe)3 [Lipitoid 1],delivery effectiveness by charge ratio,[7]; 1:4 charge ratio of oligo to lipitoid versus 1:3,more effective than the 1:3 ratio
same,nuclear delivery of the oligonucleotide,[7]; [13],higher degree of nuclear delivery
same,transfection efficiency of FITC-labeled oligonucleotide,[7]; [13],significantly higher transfection efficiency
Chol-β-ala-(NaeNmpeNmpe)3 [Cholesteroid 1],AKT1 mRNA knockout by carrier (FIG. 4),[8],better AKT1 mRNA knockout than delivery by Lipitoid 1 or Lipitoid 2
"11 (GTGTTTGTTCAGGGTTCCATTTCGG; antisense; sugars from the 5' end m7 d11 m7, 5' {5'-OMe-dT}, 3' {3'-3'N}, backbone and T or U not given here; 2'-OMe blocks are phosphodiester, DNA gap is phosphorothioate) [compound 11]",mRNA knockout,[9],>90%
"3 (CCCAGAGCCGATGGTCCGATCATGT; antisense; sugars from the 5' end m7 d11 m7, 5' {5'-OMe-dT}, 3' {3'-3'N}, backbone and T or U not given here; 2'-OMe blocks are phosphodiester, DNA gap is phosphorothioate) [compound 3]",mRNA knockout,"[5]; CHK1, HT1080 cells, Lipitoid 1 for transfection, incubated 24 hours, approximate level",>90%
"9 (TCTTCCTCACAGACCTTCGGGCAAG; antisense; sugars from the 5' end m7 d11 m7, 5' {5'-OMe-dT}, 3' {3'-3'N}, backbone and T or U not given here; 2'-OMe blocks are phosphodiester, DNA gap is phosphorothioate) [compound 9]",mRNA knockout,[10],> 80%
"7 (CCTGCCAGTATGAAGTTGGGAAGCG; antisense; sugars from the 5' end m7 d11 m7, 5' {5'-OMe-dT}, 3' {3'-3'N}, backbone and T or U not given here; 2'-OMe blocks are phosphodiester, DNA gap is phosphorothioate) [compound 7]",mRNA knockout,[11],>90%
"CCATAGTGAGGTTGCATCTGGTGCC (chimeric modifications, further chemistry not given here) [SEQ ID NO: 1, chimeric antisense oligonucleotide directed against AKT1]",reduction in endogenous AKT1 mRNA level (FIG. 3),"[12]; L1-transfected, versus control oligos and delivery by Effectene or peptoid (NaeNmpeNmpe)3",most pronounced reduction
"1 (CCATAGTGAGGTTGCATCTGGTGCC; antisense; sugars from the 5' end m7 d11 m7, 5' {5'-OMe-dT}, 3' {3'-3'N}, backbone and T or U not given here; 2'-OMe blocks are phosphodiester, DNA gap is phosphorothioate) [compound 1]",mRNA knockout,"[12]; AKT1, Lipitoid 1 for transfection, incubated 24 hours, approximate level",>90%
